Assay results published in ChEMBL document CHEMBL3596092, “Design, synthesis and biological evaluation of 4-(alkyloxy)-6-methyl-2H-pyran-2-one derivatives as quorum sensing inhibitors” (Bioorg Med Chem Lett, 2015).
Values belong to the compound of their own block, whether it stands above or below them. Activity calls are given as the source filed them. No cut-off for these calls is given here.

Tests used:
[1] = biological target: T1, Transcriptional activator protein LasR (Pseudomonas aeruginosa (strain ATCC 15692 / PAO1 / 1C / PRS 101 / LMG12228)) (UniProt P25084); assay: Inhibition of LasR in Pseudomonas aeruginosa PA14 assessed as reduction in biofilm formation at 1 to 1000 uM incubated at 37 degC for 24 hrs by crystal violet staining based static biofilm formation assay
T1 sequence (whole entry): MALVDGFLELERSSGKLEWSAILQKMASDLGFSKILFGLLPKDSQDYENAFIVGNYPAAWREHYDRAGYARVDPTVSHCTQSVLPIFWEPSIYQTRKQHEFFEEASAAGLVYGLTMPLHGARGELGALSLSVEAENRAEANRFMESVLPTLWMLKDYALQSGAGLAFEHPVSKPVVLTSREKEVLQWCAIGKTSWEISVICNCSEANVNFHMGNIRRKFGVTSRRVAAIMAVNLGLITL

[2] = biological target: T1, Transcriptional activator protein LasR (Pseudomonas aeruginosa (strain ATCC 15692 / PAO1 / 1C / PRS 101 / LMG12228)); assay: Inhibition of LasR in Pseudomonas aeruginosa PA14 assessed as reduction in phnB gene expression at 10 uM by RT-qPCR method
[3] = biological target: T1, Transcriptional activator protein LasR (Pseudomonas aeruginosa (strain ATCC 15692 / PAO1 / 1C / PRS 101 / LMG12228)); assay: Inhibition of LasR in Pseudomonas aeruginosa PA14 assessed as reduction in pqsC gene expression at 10 uM by RT-qPCR method
[4] = biological target: T1, Transcriptional activator protein LasR (Pseudomonas aeruginosa (strain ATCC 15692 / PAO1 / 1C / PRS 101 / LMG12228)); assay: Inhibition of LasR in Pseudomonas aeruginosa PA14 assessed as reduction in lasA gene expression at 10 uM by RT-qPCR method
[5] = biological target: T1, Transcriptional activator protein LasR (Pseudomonas aeruginosa (strain ATCC 15692 / PAO1 / 1C / PRS 101 / LMG12228)); assay: Inhibition of LasR in Pseudomonas aeruginosa PA14 assessed as reduction in rhlR gene expression at 10 uM by RT-qPCR method
[6] = biological target: T1, Transcriptional activator protein LasR (Pseudomonas aeruginosa (strain ATCC 15692 / PAO1 / 1C / PRS 101 / LMG12228)); assay: Inhibition of LasR in Pseudomonas aeruginosa PA14 assessed as reduction in lasB gene expression at 10 uM by RT-qPCR method
[7] = biological target: T1, Transcriptional activator protein LasR (Pseudomonas aeruginosa (strain ATCC 15692 / PAO1 / 1C / PRS 101 / LMG12228)); assay: Inhibition of LasR in Pseudomonas aeruginosa PA14 assessed as reduction in pqsD gene expression at 10 uM by RT-qPCR method
[8] = biological target: T1, Transcriptional activator protein LasR (Pseudomonas aeruginosa (strain ATCC 15692 / PAO1 / 1C / PRS 101 / LMG12228)); assay: Inhibition of LasR in Pseudomonas aeruginosa PA14 assessed as reduction in lasR gene expression at 10 uM by RT-qPCR method
[9] = biological target: T1, Transcriptional activator protein LasR (Pseudomonas aeruginosa (strain ATCC 15692 / PAO1 / 1C / PRS 101 / LMG12228)); assay: Inhibition of LasR in Pseudomonas aeruginosa PA14 assessed as reduction in biofilm formation at 0.1 to 10 uM incubated at 37 degC for 24 hrs by crystal violet staining based static biofilm formation assay
[10] = biological target: T1, Transcriptional activator protein LasR (Pseudomonas aeruginosa (strain ATCC 15692 / PAO1 / 1C / PRS 101 / LMG12228)); assay: Inhibition of Pseudomonas aeruginosa LasR expressed in Pseudomonas aeruginosa PA14 over-expressing pUCPLasR assessed as reduction in biofilm formation at 0.1 to 100 uM incubated at 37 degC for 24 hrs by crystal violet staining based static biofilm formation assay
[11] = biological target: T1, Transcriptional activator protein LasR (Pseudomonas aeruginosa (strain ATCC 15692 / PAO1 / 1C / PRS 101 / LMG12228)); assay: Inhibition of LasR in Pseudomonas aeruginosa PA14 assessed as reduction in phzE1 gene expression at 10 uM by RT-qPCR method
[12] = biological target: T1, Transcriptional activator protein LasR (Pseudomonas aeruginosa (strain ATCC 15692 / PAO1 / 1C / PRS 101 / LMG12228)); assay: Inhibition of LasR in Pseudomonas aeruginosa PA14 assessed as reduction in rhlA gene expression at 10 uM by RT-qPCR method
[13] = biological target: T1, Transcriptional activator protein LasR (Pseudomonas aeruginosa (strain ATCC 15692 / PAO1 / 1C / PRS 101 / LMG12228)); assay: Inhibition of LasR in Pseudomonas aeruginosa PA14 assessed as reduction in phzC1 gene expression at 10 uM by RT-qPCR method
[14] = biological target: T1, Transcriptional activator protein LasR (Pseudomonas aeruginosa (strain ATCC 15692 / PAO1 / 1C / PRS 101 / LMG12228)); assay: Inhibition of LasR in Pseudomonas aeruginosa PA14 assessed as reduction in rhlB gene expression at 10 uM by RT-qPCR method
[15] = biological target: T1, Transcriptional activator protein LasR (Pseudomonas aeruginosa (strain ATCC 15692 / PAO1 / 1C / PRS 101 / LMG12228)); assay: Inhibition of LasR in Pseudomonas aeruginosa PA14 assessed as reduction in biofilm formation incubated at 37 degC for 24 hrs by crystal violet staining based static biofilm formation assay
[16] = biological target: T1, Transcriptional activator protein LasR (Pseudomonas aeruginosa (strain ATCC 15692 / PAO1 / 1C / PRS 101 / LMG12228)); assay: Inhibition of LasR in Pseudomonas aeruginosa PA14 assessed as reduction in rhlI gene expression at 10 uM by RT-qPCR method
[17] = biological target: T1, Transcriptional activator protein LasR (Pseudomonas aeruginosa (strain ATCC 15692 / PAO1 / 1C / PRS 101 / LMG12228)); assay: Inhibition of LasR in Pseudomonas aeruginosa PA14 assessed as reduction in lasI gene expression at 10 uM by RT-qPCR method
[18] = biological target: T1, Transcriptional activator protein LasR (Pseudomonas aeruginosa (strain ATCC 15692 / PAO1 / 1C / PRS 101 / LMG12228)); assay: Inhibition of LasR in Pseudomonas aeruginosa PA14 assessed as reduction in mvfR gene expression at 10 uM by RT-qPCR method
Pseudomonas aeruginosa [19] = assay: Toxicity against Pseudomonas aeruginosa PA14 assessed as effect on house keeping proC gene expression at 10 uM by RT-qPCR method
Pseudomonas aeruginosa [20] = assay: Toxicity against Pseudomonas aeruginosa PA14 assessed as effect on bacterial growth at 1 to 10 uM incubated at 37 degC for 13 hrs
[21] = biological target: T1, Transcriptional activator protein LasR (Pseudomonas aeruginosa (strain ATCC 15692 / PAO1 / 1C / PRS 101 / LMG12228)); assay: Inhibition of LasR in Pseudomonas aeruginosa PA14 assessed as reduction in pqsH gene expression at 10 uM by RT-qPCR method

inhibition [1]: 6%
Compound: CCCCCCCCCCCCCOc1cc(C)oc(=O)c1

inhibition [1]: 13%
Compound: O=C1C=C(Br)/C(=C/Br)O1

Compound: CCCCCCCCCCCCOc1cc(C)oc(=O)c1
inhibition [2]: Active
inhibition [3]: Active
inhibition [4]: Active
inhibition [5]: Active
inhibition [6]: Active
inhibition [7]: Active
inhibition [8]: Active
inhibition [9]: 6%
inhibition [10]: Active
inhibition [11]: Active
inhibition [12]: Active
inhibition [13]: Active
inhibition [14]: Active
inhibition [15]: Dose-dependent effect
inhibition [16]: Active
inhibition [1]: 11%
inhibition [17]: Active
inhibition [18]: Active
Activity (Pseudomonas aeruginosa [19]): Non-toxic
Activity (Pseudomonas aeruginosa [20]): Non-toxic
inhibition [21]: Active

inhibition [1]: 6%
Compound: CCCCCCCCCCCCCCOc1cc(C)oc(=O)c1
